According to patent publication US4069223A, “4-Aminomethyl-1-(3,3,3-triarylpropyl)-4-arylpiperidine and derivatives thereof” (G. D. Searle & Co., priority 1977, dated 1978):

What was measured:
[1] = tested on: castor oil induced diarrhea; experiment: Castor oil induced diarrhea in the rat; assay type: in vivo, Charles River male rats; conditions: for ED50: Rattus norvegicus, po, 1 hour before castor oil; for Potency: relative to diphenoxylate hydrochloride
Procedure: Adult Charles River male rats were fasted in community cages for 24 hours prior to the test, with free access to water. The compound was administered intragastrically (suspended on 0.5% methycellulose) one hour prior to the administration of castor oil at the dose of 1.0 ml/rat intragastrically. The rats were then observed for the presence or absence of diarrhea, at hourly intervals for up to 8 hours past administration of castor oil. The median effective dose values at each hourly interval were calculated for the compound using the method of Berkson (1953). […] For example:
Comparative Oral Antidiarrheal Potency and Duration of 4-aminomethyl-1-1-(3,3,3-triphenylpropyl)-4-phenylpiperidine hydrochloride (Compound A) to Diphenoxylate hydrochloride in Rat Castor Oil Diarrhea Test.

mouse = experiment: Tail clip test (analgesic effect); assay type: in vivo; conditions: 100 mpk, intragastric
Procedure: The assessment of the analgesic effect of the present compounds was conducted in the tail clip test.
A specific clip is applied to the base of the tail of the mouse (adult male weighing 18-25 grams) and the time for the animal to turn around to bite at it is measured. The sensitivity of each mouse is determined one-half hour prior to drug administration. Only those mice attempting to bite the clip are included in the experiment. The test compound is then administered intragastrically and the response to placement of the clip is determined at 30, 60, 90 and 120 minutes after treatment. A response is considered positive if the animal takes more than 2 times the pre-drug time to bite at the clip at any of these time intervals. A test compound is considered active when 50 percent or more of the animals used show a positive response.

SMILES: Cl.NCC1(c2ccccc2)CCN(CCC(c2ccccc2)(c2ccccc2)c2ccccc2)CC1 [Compound A, 4-aminomethyl-1-(3,3,3-triphenylpropyl)-4-phenylpiperidine hydrochloride]
- ED50 ([1]; 2 hours after castor oil, intragastric): 3.53 mg/kg
- ED50 ([1]; 3 hours after castor oil, intragastric): 4.24 mg/kg
- ED50 ([1]; 4 hours after castor oil, intragastric): 5.4 mg/kg
- ED50 ([1]; 5 hours after castor oil, intragastric): 5.58 mg/kg
- ED50 ([1]; 6 hours after castor oil, intragastric): 5.79 mg/kg
- ED50 ([1]; 7 hours after castor oil, intragastric): 7.48 mg/kg
- ED50 ([1]; 8 hours after castor oil, intragastric): 7.48 mg/kg
- inhibition of gastrointestinal motility ([1]; rat castor oil test, intragastric): found to inhibit gastrointestinal motility
- Potency ([1]; 2 hours after castor oil): 0.06
- Potency ([1]; 3 hours after castor oil): 0.11
- Potency ([1]; 4 hours after castor oil): 0.16
- Potency ([1]; 5 hours after castor oil): 0.24
- Potency ([1]; 6 hours after castor oil): 0.29
- Potency ([1]; 7 hours after castor oil): 0.25
- Potency ([1]; 8 hours after castor oil): 0.26
- analgesic effect (mouse): weak analgesic effect
